Test results reported in PubChem BioAssay AID2060487 (Molecular Pharmacology Branch, DTP, NCI, 2025).

Test system: 997537-175-T-J1-PDC complex spheroid viability
Assay: Anticancer human tumor 997537-175-T-J1-PDC patient-derived colon adenocarcinoma cell line growth inhibition [GQUAD]
Settings: for IC50: curve of first compound; for viability, T/C: stronger effect = lower value
In short: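 Multi-cell-type spheroids of tumor cells with HUVEC and mesenchymal stem cells, treated with drug combinations. Concentrations descend in half-log steps from near clinical Cmax, or from 10 microM where Cmax is unknown; viability read-out.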

[1] = second compound 0.0316 µM, first compound 0.0316 µM
[2] = second compound 0.0316 µM, first compound 0.1 µM
[3] = second compound 0.0316 µM, first compound 0.316 µM
[4] = second compound 0.0316 µM, first compound 1 µM
[5] = second compound 0.0316 µM, first compound 3.16 µM
[6] = second compound 0.0316 µM, first compound 10 µM
[7] = second compound 0.1 µM, first compound 0.0316 µM
[8] = second compound 0.1 µM, first compound 0.1 µM
[9] = second compound 0.1 µM, first compound 0.316 µM
[10] = second compound 0.1 µM, first compound 1 µM
[11] = second compound 0.1 µM, first compound 3.16 µM
[12] = second compound 0.1 µM, first compound 10 µM
[13] = second compound 0.316 µM, first compound 0.0316 µM
[14] = second compound 0.316 µM, first compound 0.1 µM
[15] = second compound 0.316 µM, first compound 0.316 µM
[16] = second compound 0.316 µM, first compound 1 µM
[17] = second compound 0.316 µM, first compound 3.16 µM
[18] = second compound 0.316 µM, first compound 10 µM
[19] = second compound 1 µM, first compound 0.0316 µM
[20] = second compound 1 µM, first compound 0.1 µM
[21] = second compound 1 µM, first compound 0.316 µM
[22] = second compound 1 µM, first compound 1 µM
[23] = second compound 1 µM, first compound 3.16 µM
[24] = second compound 1 µM, first compound 10 µM
[25] = second compound 3.16 µM, first compound 0.0316 µM
[26] = second compound 3.16 µM, first compound 0.1 µM
[27] = second compound 3.16 µM, first compound 0.316 µM
[28] = second compound 3.16 µM, first compound 1 µM
[29] = second compound 3.16 µM, first compound 3.16 µM
[30] = second compound 3.16 µM, first compound 10 µM
[31] = second compound 10 µM, first compound 0.0316 µM
[32] = second compound 10 µM, first compound 0.1 µM
[33] = second compound 10 µM, first compound 0.316 µM
[34] = second compound 10 µM, first compound 1 µM
[35] = second compound 10 µM, first compound 3.16 µM
[36] = second compound 10 µM, first compound 10 µM
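Also: spheroids exposed to the agents for 7 days.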
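For viability, T/C in this document: 100% = DMSO vehicle control viability.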

CC1COCCN1c1cc(-c2ccnn2C)c2ccnc(-c3ccn[nH]3)c2n1 (centres undefined) + CN(C)c1ccc(Nc2c3ccc(NC(=O)CCN4CCCC4)cc3nc3cc(NC(=O)CCN4CCCC4)ccc23)cc1
IC50 (second compound 0.0316 µM): 0.8 µM | IC50 (second compound 0.1 µM): 2.46 µM | IC50 (second compound 0.316 µM): > 10 µM | IC50 (second compound 1 µM): > 10 µM | IC50 (second compound 3.16 µM): > 10 µM | IC50 (second compound 10 µM): 0.264 µM | viability, T/C [1]: 86.6% | viability, T/C [2]: 78.5% | viability, T/C [3]: 58.1% | viability, T/C [4]: 43.9% | viability, T/C [5]: 46.8% | viability, T/C [6]: 30.1% | viability, T/C [7]: 95.8% | viability, T/C [8]: 81.9% | viability, T/C [9]: 69.5% | viability, T/C [10]: 56.6% | viability, T/C [11]: 40.1% | viability, T/C [12]: 52.9% | viability, T/C [13]: 97.7% | viability, T/C [14]: 69.4% | viability, T/C [15]: 61.6% | viability, T/C [16]: 35.5% | viability, T/C [17]: 54.9% | viability, T/C [18]: 59.8% | viability, T/C [19]: 82.5% | viability, T/C [20]: 59.7% | viability, T/C [21]: 56.1% | viability, T/C [22]: 34% | viability, T/C [23]: 68.8% | viability, T/C [24]: 51% | viability, T/C [25]: 60.6% | viability, T/C [26]: 70.3% | viability, T/C [27]: 52.3% | viability, T/C [28]: 44.1% | viability, T/C [29]: 67.8% | viability, T/C [30]: 60.6% | viability, T/C [31]: 89.6% | viability, T/C [32]: 68.8% | viability, T/C [33]: 43.8% | viability, T/C [34]: 32.6% | viability, T/C [35]: 50% | viability, T/C [36]: 59.5%

Cc1cccc(N(C)C(=O)C2C(O)CCN2c2nc(C)cc(C(F)(F)F)c2C#N)c1 (centres undefined) + CN(C)c1ccc(Nc2c3ccc(NC(=O)CCN4CCCC4)cc3nc3cc(NC(=O)CCN4CCCC4)ccc23)cc1
IC50 (second compound 0.0316 µM): > 10 µM | IC50 (second compound 0.1 µM): > 10 µM | IC50 (second compound 0.316 µM): > 10 µM | IC50 (second compound 1 µM): > 10 µM | IC50 (second compound 3.16 µM): > 10 µM | IC50 (second compound 10 µM): > 10 µM | viability, T/C [1]: 97.8% | viability, T/C [2]: 101% | viability, T/C [3]: 101% | viability, T/C [4]: 80.2% | viability, T/C [5]: 85.4% | viability, T/C [6]: 105% | viability, T/C [7]: 91.5% | viability, T/C [8]: 85.9% | viability, T/C [9]: 87.7% | viability, T/C [10]: 70.3% | viability, T/C [11]: 103% | viability, T/C [12]: 89.7% | viability, T/C [13]: 83.8% | viability, T/C [14]: 85.7% | viability, T/C [15]: 81.4% | viability, T/C [16]: 77.7% | viability, T/C [17]: 89.2% | viability, T/C [18]: 104% | viability, T/C [19]: 84.9% | viability, T/C [20]: 61.3% | viability, T/C [21]: 83.2% | viability, T/C [22]: 81.2% | viability, T/C [23]: 104% | viability, T/C [24]: 85.3% | viability, T/C [25]: 61.4% | viability, T/C [26]: 91.3% | viability, T/C [27]: 77% | viability, T/C [28]: 93.8% | viability, T/C [29]: 103% | viability, T/C [30]: 103% | viability, T/C [31]: 72.5% | viability, T/C [32]: 83.9% | viability, T/C [33]: 106% | viability, T/C [34]: 88.9% | viability, T/C [35]: 106% | viability, T/C [36]: 103%
